According to the OPERA property sets (Mansouri et al. 2018):

| SMILES | logP |
| --- | --- |
| O=C1NC(=O)N(Cc2ccccc2)C1=O | 1.19 |
| O=C1CC(=O)C(c2ccccc2)O1 (configuration not stated) | 1.47 |
| O=C1CC(=O)N(c2ccccc2)O1 | 0.54 |
| O=C1NC(=O)N(c2ccccc2)C1=O | 0.6 |
| O=C1NC(=O)C(Cc2ccccc2)O1 (configuration not stated) | 1.2 |
| O=C1NC(=O)C(Cc2ccccc2)N1 (configuration not stated) | 0.6 |
| O=C1NC(=O)C(Cc2ccccc2)S1 (configuration not stated) | 1.98 |
| NC(=O)NS(=O)(=O)Cc1ccccc1 | 0.24 |
| O=c1[nH]c(=O)n(-c2ccccc2)o1 | 1.74 |
| O=C1CNC(=O)N1c1ccccc1 | 0.04 |
| O=C1CC(=O)N(Cc2ccccc2)C1 | 0.76 |
| O=C1CC(=O)C(c2ccccc2)N1 (configuration not stated) | 0.48 |
| O=C1NC(=O)C(c2ccccc2)O1 (configuration not stated) | 1.09 |
| O=C1CN(c2ccccc2)C(=O)N1 | 0.83 |
| NS(=O)(=O)NC(=O)Cc1ccccc1 | 0.31 |
| O=C1NC(=O)C(c2ccccc2)C1=O (configuration not stated) | 2.26 |
| O=C1CN(Cc2ccccc2)C(=O)N1 | 0.76 |
